Measurements taken from patent US7531195B2, “Schisandrin B preparation” (priority 2005, dated 2009).

How the values were obtained:
H9c2 cells [1] = assay: Cellular GSH level in H9c2 cells, time course, with or without xanthine/xanthine oxidase (X/XO) challenge; format: cell-based, rat; details: 6.25 μM
Method: (§1) H9c2 cells, a permanent cell line derived from cardiac myoblasts of rat embryo, have early been characterized as a suitable model of myocardial cells [Hescheler et al. 1991]. H9c2 cells were cultured as monolayers in Dulbecco's modified Eagle's medium (GIBCO BRL) supplemented with 10% (v/v) fetal bovine serum. The medium contained glucose (4.5 g/L) and glutamine (4.5 mM), supplemented with NaHCO3 (17 mM), penicillin (100 IU/ml), and streptomycin (100 μg/ml). Cells were grown under an atmosphere of 5% CO2 in air at 37° C. The medium was replaced by fresh medium every 2 or 3 days. A stock of cells was grown in a 75 cm culture flask and split before confluence at a subcultivation ratio of 1:10. Cells used for experiments were seeded at a density of 3.75×10^4 cells/well on a 12-well culture plate, and the cells were grown for 24 h to about 80% confluence prior to drug treatment.
(§2) Cultured H9c2 cells were treated with (−) Schisandrin B, (+) Schisandrin B or (±) Schisandrin B (dissolved in DMSO) at 6.25 μM (0.2% DMSO final concentration) for increasing periods of time. Control cells were given the vehicle (i.e. DMSO) only. Immediately following the drug or vehicle pretreatment, the cells were challenged with a mixture of xanthine (X) (0.1 mM) and xanthine oxidase (XO) (0.4 U/ml) for 4 h. The control cells were treated with the medium only. After the X/XO challenge, the medium was taken for the measurement of LDH activity, a biochemical index of cellular injury.
(§3) The cells were washed twice with 0.5 ml cold phosphate-buffered saline (PBS), An aliquot (200 μl) of 3% sulfonsalicyclic acid was then added, and the mixture was incubate at 4° C. for 10 min. After centrifuging at 300 g for 15 min at 4° C., the supernatant was used for GSH measurement by an enzymatic method of Griffith (1980).

H9c2 cells [2] = assay: Xanthine/xanthine oxidase-induced cytotoxicity (LDH leakage) in H9c2 cells; format: cell-based, rat; details: X/XO challenge, 6.25 μM
Method: as §1, §2

H9c2 cells [3] = assay: Menadione-induced toxicity (LDH) in H9c2 cells; format: cell-based, rat
Method: as §1
(§4) Cultured H9c2 cells were treated with (−) Schisandrin B, (+) Schisandrin B or (±) Schisandrin B (dissolved in DMSO) at 6.25 μM (0.2% DMSO final concentration) for 16 h. Control cells were given the vehicle (i.e. DMSO) only. Immediately following the drug or vehicle pretreatment, the cells were challenged with menadione (dissolved in ethanol) at 12.5 μM (0.2% ethanol final concentration) for 4 h. The control cells were treated with the medium containing 0.2% ethanol only. After the menadione challenge, the medium was taken for the measurement of LDH activity, an biochemical index of cell injury.

H9c2 cells [4] = assay: Cellular GSH level in H9c2 cells with or without menadione challenge; format: cell-based, rat
Method: as §1, §4, §3

Hsp25 = Hsp25 expression in H9c2 cells (Western blot); format: cell-based, rat; details: 6.25 μM
Method: as §1
(§5) Cultured H9c2 cells were treated with (−) Schisandrin B, (+) Schisandrin B or (±) Schisandrin B (dissolved in DMSO) at 6.25 μM (0.2% DMSO final concentration) for increasing periods of time. Control cells were given the vehicle (i.e. DMSO) only.
(§6) Immediately following the drug treatment, the cells were washed twice with 0.5 ml cold PBS and treated with 100 μl lysis buffer containing 20 mM Tris HCl, 3 mM EGTA, 1% Triton X-100, 10% glycerol and 2 mM dithiothreitol, pH 7.5, with freshly added protease inhibitors (1 mM phenylmethylsulfonyl fluoride, 0.1 mM benzamide, 5 μg/ml leupeptin, 5 μg aproptinin and 5 μg/ml pepstain A). The mixture was incubated at 4° C. for 15 min with constant shaking. Then the cells were scraped off from the plate, and the extract was transferred to a microcentrifuge tube for centrifugation at 2,400 g for 3 min at 4° C. The resultant supernatant was used for Hsp analysis. Hsp25 and Hsp70 levels was estimated by Western blot analysis using specific antibodies (anti-Hsp25, catalog #SPA-801; anti-Hsp70, catalog #SPA-812) from StressGen (Vancouver, BC, Canada) following SDS-PAGE analysis cell lysates, using a separating gel of 10% acrylamide as described in Ip et. al. [2001]. Hsp25/27 and Hsp70 (human recombinant proteins from StressGen) and actin (bovine muscle from Sigma) were used as markers for reference. […] All immuno-blots were analyzed by densitometry, and the amounts (arbitrary units) of Hsp were normalized with reference to actin levels (arbitrary units) in the sample.

Hsp70 = Hsp70 expression in H9c2 cells (Western blot); format: cell-based, rat; details: 6.25 μM
Method: as §1, §5, §6

H9c2 cells [5] = assay: Cytotoxicity test in H9c2 cells (trypan blue, LDH leakage, WST); format: cell-based; details: 100 μM; 24 h
Method: as §1
Cultured H9c2 cells were treated with (−) Schisandrin B or (+) Schisandrin B (dissolved in DMSO) at 6.25 μM (0.2% DMSO final concentration) at increasing concentrations or at increasing concentrations for 24 h. Control cells were given the vehicle (i.e. DMSO) only.
Cell viability was evaluated by trypan blue staining (dead cells) and LDH leakage as well as WST staining (viable cells).

[6] = X/XO challenge, 16 h post-dosing
[7] = 0 h post-dosing (unpretreated control)
[8] = MENADIONE 12.5 μM for 4 h, drug 6.25 μM for 16 h
[9] = NON-MENADIONE, 6.25 μM for 16 h

COc1cc2c(c(OC)c1OC)-c1c(cc3c(c1OC)OCO3)CC(C)C(C)C2 (single isomer, unassigned; (+)) [(+) Sch B, (+) Schisandrin B]
GSH Level (H9c2 cells [1]; NON-X/XO, 0 h post-dosing (unpretreated control)): 34.2 ± 2.41 nmol/mg protein
GSH Level (H9c2 cells [1]; NON-X/XO, 4 h post-dosing): 38.3 ± 1.48 nmol/mg protein
GSH Level (H9c2 cells [1]; NON-X/XO, 8 h post-dosing): 46.3 ± 0.85 nmol/mg protein
GSH Level (H9c2 cells [1]; NON-X/XO, 16 h post-dosing): 73.9 ± 1.38 nmol/mg protein
GSH Level, percent increase vs unpretreated control (0 h) (H9c2 cells [1]; NON-X/XO, 16 h post-dosing): (117%)
GSH Level (H9c2 cells [1]; NON-X/XO, 24 h post-dosing): 66.7 ± 1.83 nmol/mg protein
GSH Level (H9c2 cells [1]; NON-X/XO, 48 h post-dosing): 59.0 ± 2.94 nmol/mg protein
GSH Level (H9c2 cells [1]; X/XO challenge, 0 h post-dosing (unpretreated control)): 13.9 ± 1.68 nmol/mg protein
GSH Level (H9c2 cells [1]; X/XO challenge, 4 h post-dosing): 15.4 ± 0.55 nmol/mg protein
GSH Level (H9c2 cells [1]; X/XO challenge, 8 h post-dosing): 16.8 ± 0.85 nmol/mg protein
GSH Level (H9c2 cells [1]; [6]): 18.4 ± 0.33 nmol/mg protein
GSH Level, percent increase vs unpretreated control (0 h) (H9c2 cells [1]; [6]): (32%)
GSH Level (H9c2 cells [1]; X/XO challenge, 24 h post-dosing): 17.2 ± 0.36 nmol/mg protein
GSH Level (H9c2 cells [1]; X/XO challenge, 48 h post-dosing): 14.1 ± 0.53 nmol/mg protein
LDH Leakage (H9c2 cells [2]; [7]): 35.7 ± 0.24 U/L
LDH Leakage (H9c2 cells [2]; 4 h post-dosing): 31.3 ± 0.71 U/L
LDH Leakage (H9c2 cells [2]; 8 h post-dosing): 25.2 ± 0.45 U/L
LDH Leakage (H9c2 cells [2]; 16 h post-dosing): 19.4 ± 0.29 U/L
LDH Leakage, percent protection vs unpretreated control (0 h) (H9c2 cells [2]; 16 h post-dosing): (62%)
LDH Leakage (H9c2 cells [2]; 24 h post-dosing): 22.4 ± 1.07 U/L
LDH Leakage (H9c2 cells [2]; 48 h post-dosing): 33.5 ± 0.17 U/L
LDH (H9c2 cells [3]; [8]): 24.7 ± 0.56 U/ml
LDH, percent protection vs menadione control (H9c2 cells [3]; [8]): (30%)
LDH (H9c2 cells [3]; [9]): 13.5 ± 0.08 U/ml
GSH Level (H9c2 cells [4]; [8]): 24.5 ± 2.03 nmol/mg protein
GSH Level, percent increase vs menadione control (H9c2 cells [4]; [8]): (55%)
GSH Level (H9c2 cells [4]; [9]): 48.4 ± 0.60 nmol/mg protein
GSH Level, percent increase vs non-menadione control (H9c2 cells [4]; [9]): (41%)
Hsp 25 Level (Hsp25; [7]): 1722 ± 99 AU
Hsp 25 Level (Hsp25; 8 h post-dosing): 1832 ± 105 AU
Hsp 25 Level (Hsp25; 16 h post-dosing): 1498 ± 86 AU
Hsp 25 Level (Hsp25; 24 h post-dosing): 2168 ± 125 AU
Hsp 25 Level, percent increase vs unpretreated control (0 h) (Hsp25; 24 h post-dosing): (26%)
Hsp 25 Level (Hsp25; 48 h post-dosing): 1673 ± 97 AU
Hsp 70 Level (Hsp70; [7]): 465 ± 14.3 AU
Hsp 70 Level (Hsp70; 8 h post-dosing): 576 ± 20.3 AU
Hsp 70 Level (Hsp70; 16 h post-dosing): 657 ± 13.4 AU
Hsp 70 Level (Hsp70; 24 h post-dosing): 834 ± 48.1 AU
Hsp 70 Level, percent increase vs unpretreated control (0 h) (Hsp70; 24 h post-dosing): (79%)
Hsp 70 Level (Hsp70; 48 h post-dosing): 656 ± 37.8 AU
percentage of cell death (H9c2 cells [5]): 11%
